From patent US10801023B2, “Methods of identifying biologically active random peptides in plants and libraries of plants expressing candidate biologically active random peptides” (University of Florida Research Foundation, Inc., priority 2015, dated 2020)

Tests used:
[1] = tested on: Arabidopsis thaliana plants; assay: Screening of library of transformed plants expressing candidate BARPs for new phenotypes; assay type: in vivo; details: transgenic Arabidopsis thaliana expressing the BARP, scored from emergence to senescence
Excerpt: In the present example, the methods of the present disclosure were used to generate a library of test nucleic acids encoding a plurality of candidate BARPs, each having a core 6 amino acid random peptide sequence flanked by two cysteine residues. The sequences were also flanked by start and stop codons and Gateway® sequences, such as illustrated in FIG. 1. PCR was used with primers corresponding to the known Gateway flanking sequences to generate the test nucleic acid library. The oligonucleotides were then cloned into bacterial vectors including genes for kanamycin resistance to create a recombination vector library. The vectors were then moved to Agrobacterium tumefaciens strain […] and used to transform Arabidopsis thaliana plants. Seeds were collected from the transformed plants and used to grow new plants. These plants were observed from seedling through the plant lifecycle and observed for new phenotypes. Several new phenotypes emerged, DNA was extracted from the plants displaying new phenotypes, and the sequence of the candidate BARP from the plants was determined. The procedures and results are described in detail below.
The test nucleic acid sequences were synthesized using conserved initiator and terminator sequences flanking 18 random nucleotides, which provides a peptide that is ten amino acids long, with six of the core amino acids randomized, following a Met-Ala-Cys and ending with a Cys-term. This template is illustrated in FIG. 1. In the present example, the corresponding nucleic acid sequence was […] (SEQ ID NO: 5; nucleotides 14-46 of SEQ ID NO: 1). The cysteine residues in this case provide potential for formation of disulfide bonds that may impart additional structure to the adjacent amino acid loop. Although in this example 18 random nucleotides (identified as “N” in SEQ ID NOs: 1 and 5) were used, any number may be used, as long as it is a multiple of three.
To construct the library of random-core BARP sequences, the above DNA sequence was synthesized as an oligonucleotide sequence, along with flanking sequences corresponding to the Gateway® recombination sequences. The middle portion of the sequence, represented by “N” in FIG. 1, were randomized nucleotides. Known synthesis techniques were used to build the sequences, resulting in a library of PCR products containing test nucleic acid sequences (start codon, spacer codon, cysteine codon, 18 random nucleotides encoding a core candidate BARP sequence, second cysteine codon, and stop codon) flanked by Gateway recombination sequences. Although Gateway® sequences were used in the present examples, other recombination cloning primer sequences could be used or specifically designed.
The library of PCR products containing random test sequences was amplified using PCR based on flanking primers containing Gateway recombination sequences. These reactions produced a population of PCR products each containing the core peptide test sequence flanked by Gateway recombination sequences. These PCR products were introduced to the vector pDONR222 using Gateway recombination, and then transformed into E. coli genotype DH5α. The transformation vector also included the NPTII gene for kanamycin resistance. The E. coli cells were plated on kanamycin plates at low density to obtain single-colony separation. The single colonies each contained a separate plasmid bearing a random peptide sequence.
The colonies were recovered from plates in liquid medium, and the plasmids were isolated. The isolated plasmids represented a library of many independent, random sequences (encoding candidate BARPs) flanked by ‘start’ and ‘stop’ sequences. […]

[2] = tested on: Arabidopsis thaliana plants; assay: Independent replication of peptide-induced phenotypes in independent transformant lines; assay type: in vivo; details: BARP sequence re-introduced into Arabidopsis thaliana
Method: A number of first-transformed generation plants were prepared and phenotypes were observed using the methods described in Example 1, above. In this example some 12-amino-acid-long candidate BARPs were also synthesized and tested. The procedures were the same as for the 6-aa BARPs described in Example 1. These phenotypes were also observed to be stable and inherited in subsequent generations. To verify that the effects observed are due to the expressed peptide and not to other less-likely positional/insertional causes, in this Example, a substantial number of the of the candidate 6 and 12 amino-acid-long BARPs were sequenced and separately transformed into independent plants. […] One microliter was used in a PCR reaction under standard conditions, and using primers corresponding to the attachment (recombinational cloning sequences) of the Gateway vector, the corresponding BARP sequences was amplified. This sequences were then recombined into the pDONR222 vector and then re-ligated into the binary pKWDG2 over-expression vector as described above. This sequence was then re-introduced into Arabidopsis thaliana plants using the floral dipping strategy and selection as noted above. The seedlings were then analyzed for the phenotype as defined by the original transformant. Recapitulation of the phenotype in multiple, independent transformation events provided high evidence of a specific physiological effect of the peptide.

[3] = tested on: Arabidopsis thaliana plants; assay: Quantitative analysis of flowering time of CBF6AA-15 transformant lines; assay type: in vivo; details: lines 26, 29, 31 versus wild type Col-0
Excerpt: FIG. 4A is a digital image comparing a wild type A. thaliana plant with 3 separate lines transformed with the 6AA-15 BARP. A bar graph comparing the number of rosette leaves for each line at the time of flowering is illustrated in FIG. 4B. FIGS. 4C-4F are a series of graphs illustrating quantitative analysis of flowering time for the plant lines illustrated in FIG. 4A, with a minimum of 113 plants analyzed per line.
The observed phenotype was also confirmed by the observed number of rosette leaves present on the plant at the time of flowering, where transformants flowered days earlier and after producing fewer leaves. […] A minimum of 113 plants were analyzed per line, and the number of days until flowering was recorded. FIGS. 4C-4F illustrate the distribution of flowering times of wild type plants vs. the three transformant lines, with the mean shifting from 36 days in wild-type plants to […] in the transgenic lines.

Arabidopsis plants [4] = assay: Plant growth and phenotyping of PEP6 / PEP12 transgenic plants; assay type: in vivo, Arabidopsis thaliana; details: transgenic plant in soil; normal-sized plants 25 mm to 30 mm
Excerpt: Two libraries encoding six- and twelve-random amino acid cyclized peptides (denoted PEP6 and PEP12, respectively) were constructed in binary vectors (as illustrated in FIG. 9) using a Gateway cloning strategy and transformed into Arabidopsis. More than 1,500 transgenic plants with the PEP6 T-DNA inserts were isolated and more than 600 transgenic plants were isolated carrying the PEP12 insert, representing a survival ratio of 1.8% and 1.2% respectively under kanamycin selection. To ensure library representation in the population, DNA was prepared from at least fifty transgenic plants, including ten that had small rosette diameter (5 mm to 10 mm) (e.g., those having BARP sequences SEQ ID NO: 14, 16, 6, 19, 21, 23, 26, 28, 30, and 32) compared to normal-sized plants (25 mm to 30 mm; see Table 2). The nucleotide sequences of all amplified random peptide open reading frames (rpORFs) were different, indicating representation of library diversity was maintained throughout the cloning and transformation process. Several phenotypes were visually apparent. […] Some plants showing multiple growth defects were recorded in each phenotype. Bolting plants with multiple inflorescences were transformed with the PEP6 or PEP12 destination library through the floral dipping method (Clough and Bent, 1998, incorporated herein by reference). For selection, seeds were surface sterilized by 70% ethanol for 5 min and 10% bleach for 20 min. Surface-sterilized seeds were plated on ½× MS basal medium with 0.5% Phyto Agar (cat. # M10200 and # A20300, Research Products International) and 50 μg/ml kanamycin for selection. Transgenic seedlings were identified by GFP expression or resistance to kanamycin. Transformed seedlings were grown to the 3-5 true leaf stage on plates and transferred to soil. DNA was extracted from each seedling (Edwards et al., 1991 incorporated herein by reference) for inserted nucleotide sequence identification. An approximately 500 bp DNA fragment containing the random peptide ORF and part of pK7WG2D vector sequence was amplified using primers PEP-F and PEP-R (SEQ ID NOs: 35 and 36, respectively) listed in Table 4 and sequenced. Arabidopsis plants were grown in soil at 20° C. under 16 hour light/8 hour dark conditions. The characterization of phenotypic variations was based on the comparison among seedlings grown in the same pot or flat.

Arabidopsis plants [5] = assay: Flowering time measurement; assay type: in vivo, Arabidopsis thaliana
Excerpt: The rpORF were cloned from this seedling PEP6-15 and retransformed into Col-0. A total of 15 independent transgenic lines were isolated and measured on their flowering time. About 75% independent lines had earlier flowering time compared to wild type plants. Thereafter three representative lines 1, 2 and 3, were chosen for detailed analyses (FIG. 11A). […] Thus, the BARP for PEP6-15 (SEQ ID NO: 6, nucleotide sequence SEQ ID NO: 17) appears to produce an earlier flowering time phenotype. […] Three independent PEP6-15 transgenic lines with no transgene segregation were grown directly in soil for the measurement of flowering time. Every line was planted in three 10 cm×10 cm×11 cm pots, and approximately twenty seeds were sown in each pot. The flowering time was recorded as the number of rosette leaves when the inflorescence stem was 0.5-1 cm long. When the majority of plants had flowered, measurement was concluded.

Arabidopsis seedlings = assay: Effects of lethal sequences: growth of PEP6-3 seedlings with or without sucrose; assay type: in vivo, Arabidopsis thaliana
Excerpt: If these seedlings were transplanted to media supplemented with 2% sucrose some of them survived. These surviving seedlings were genotyped. One of these seedlings grew on a sucrose plate for one month and in soil for another 2 months before bolting and setting seeds. The rpORF was re-cloned and transformed into Col-0 Arabidopsis to generate independent transformation lines. […] The T2 seeds from the original line and 5 independent lines were sown on a ½ MS plate with or without sucrose under kanamycin selection. Seeds on both types of media germinated at a rate of 95%. […] The effect of the peptide was tested in petunia. […] Thus, the BARP for PEP6-3 (SEQ ID NO: 14, nucleotide sequence SEQ ID NO: 13) appears to produce phenotype that requires sucrose media.
It is possible that the phenotypes observed were not related to the peptide sequence, but instead were artifacts of T-DNA integration, since insertion of the CaMV35S-bearing T-DNA cassette could potentially disrupt a gene where an effect could be observed in its heterozygous form, or the viral promoter could activate expression of neighboring genes, resulting in an observable phenotype. Thus, to generate a series of independent transformants for each sequence of interest, the random peptide ORFs from transgenic plants showing aberrant phenotypes were amplified using attB universal adaptor primers, and cloned into pDONR222 and pK7WG2D vectors via BP and LR reactions, respectively. These constructs were then transformed into Arabidopsis to generate additional independent transgenic lines. Each series of independent transgenic lines containing the same random peptide ORF were grown under the same conditions used to produce the original phenotype. Transcript abundance of the random peptide ORF and the control gene Ubiquitin family protein (UFP, At4g01000) in every transgenic line was analyzed by semi-quantitative RT-PCR using attB1 and attB2 adaptor primers or UFP-rF and -rR primers (SEQ ID NOs: 37-38), respectively.
The seedling was moved to media containing sucrose where it then developed normally. Five independent lines (1, 2, 3, 4 and 6) containing the PEP6-3 sequence (SEQ ID NO: 13) were grown under kanamycin selection on ½ MS medium with or without the supplement of 2% sucrose in dark for the first 7 d and then exposed to light. Without sucrose, some seedlings with only the two cotyledons or the first two true leaves died eventually, and only a few seedlings fully developed. The proportion of seedlings developed with the first two true leaves or fully developed was recorded.

Petunia hybrida = assay: Petunia transformation with PEP6-3; assay type: in vivo; details: five independent transgenic shoots, versus controls
Method: PEPS-3 was introduced into Petunia hybrida by Agrobacterium tumefaciens-mediated transformation of leaf fragments, following a modified protocol by Jorgensen et al, (1996), incorporated herein by reference. Leaves were dissected into 4×5 mm fragments and immersed in Agrobacterium solution for 15 min, then transferred to MS agar plates supplemented with TDZ (1 μg/mL), galacturonic add (212 μg/mL) and acetosyringone (8 μg/mL). After 2 d in darkness, explants were transferred to MS medium containing TDZ (1 μg/mL), carbenicillin (500 μg/mL) and kanamycin (150 μg/mL) for two weeks. Callusing explants were then transferred to light on MS medium containing only antibiotics. After the appearance of shoots, these were transferred to MS medium containing antibiotics and IBA (0.8 μg/mL), for root formation.

[6] = ½ MS plate without sucrose, kanamycin selection, T2 seeds

| Sequence | phenotype [1] | phenotype in independent transformant lines [2] | number of rosette leaves at the time of flowering [3] | rosette size (Arabidopsis plants [4]) [mm] | bolting earlier than Col-0 (Arabidopsis plants [5]; lines 1, 2 and 3, inferred from rosette leaf number) [days] | number of rosette leaves when bolting (Arabidopsis plants [5]; lines 1, 2 and 3, 16 hour light/8 hour dark, Col-0 11.5) [rosette leaves] | size of independent transgenic lines (Arabidopsis seedlings; 20 independent transgenic lines versus control lines) | development of germinated seeds on sucrose plates (Arabidopsis seedlings; ½ MS plate with 2% sucrose) | germination rate (Arabidopsis seedlings; ½ MS plate with or without sucrose (both types of media)) [%] | transgenic seedlings forming true leaves (Arabidopsis seedlings; [6]) [%] | transgenic seedlings growing into fully-developed plants (Arabidopsis seedlings; [6]) [%] | growth of transgenic petunia shoots (Petunia hybrida) |
| --- | --- | --- | --- | --- | --- | --- | --- | --- | --- | --- | --- | --- |
| MACDFNFGIC (chemically synthesized peptide sequence of BARP CBF6AA-15 associated with early flowering behavior) | tiny, slightly early flowering | significant early-flowering phenotype | fewer number of leaves at the time of flowering than the wild type | 5 | 3 to 4 | 10 |  |  |  |  |  |  |
| MACRGVDSAC (chemically synthesized peptide sequence of BARP PEP6-3) [BARP producing sucrose dependent phenotype] |  |  |  | 5 |  |  | grew smaller than control lines | grew into fully-developed plants | 95 | < 30 | < 10 | grew slowly compared to controls before turning pale and dying after several weeks |
